{"source": "patent US12201633B2", "about": "“Compounds and methods for treatment of visceral pain” (Arena Pharmaceuticals, Inc., priority 2017, dated 2025)", "key": {"[1]": {"system": "male Sprague Dawley rats, FCA-induced hyperalgesia", "assay": "FCA-induced hyperalgesia model of inflammatory pain", "type": "in vivo, rat", "settings": "0.1, 1, 3, 10 and 30 mg/kg orally, 1-hour post dosing, vehicle PEG400; FIG. 1", "experimental": "Animal info: Male Sprague Dawley rats from Harlan (200-225 g when received) were used. Upon arrival, rats were housed 4 per cage in shoe-box polycarbonate cages with wire tops, wood chip bedding and suspended food and water bottles. Animals were acclimated for 5-7 days prior to being injected with Freund's complete adjuvant (FCA) (Sigma; catalog #5881).\nExperimental procedure: 2 days (48 h) before testing compounds, baseline readings of all rats were taken right before FCA injection. Rats were then injected with 50 μL FCA containing 1 mg/mL Mtb (Mycobacterium tuberculosis) in right hind footpad under inhalation anesthesia (isoflurane). 48 hours after FCA injection, readings were taken as pre-dosing baseline and then rats were dosed orally with 0.5 mL of vehicle or compound (0.5 mL per 250 g rat). Readings were taken again at 1-hour post dosing. All readings were taken with an Analgesy-Meter (Ugo Basile) which measures mechanical hyperalgesia via paw pressure.\nClinical scoring: FCA-induced hyperalgesia was tested with an Analgesy-Meter. Briefly, the Analgesy Meter applied an increasing pressure to the right hind paw. The paw withdrawal threshold was the pressure leading to withdrawal.\nMeanwhile a group of rats were dosed orally with 50 mg/kg of Diclofenac as a positive control. Readings were taken again at 1-hour post dosing. Dosing volume was 500 μL per 250 g rat."}, "[2]": {"system": "male Sprague Dawley rats, MIA model of osteoarthritis", "assay": "Monosodium iodoacetate (MIA) model of osteoarthritis pain", "type": "in vivo, rat", "settings": "3, 10 and 30 mg/kg orally, one hour after dosing, vehicle PEG400; FIG. 2", "description": "Injection of monosodium iodoacetate (MIA) into a joint (Kalbhen, 1987) inhibits the activity of glyceraldehyde-3-phosphate dehydrogenase in chondrocytes, resulting in disruption of glycolysis and eventually in cell death. The progressive loss of chondrocytes results in histological and morphological changes of the articular cartilage, closely resembling those seen in osteoarthritis patients.\nThe osteoarthritis was induced in 200 g male Sprague Dawley rats. […]\nTypically, during disease progression, there was an inflammation period of 0-7 days post-intra-articular injection followed by progressive degeneration of the cartilage and subchondral bone from days 14-55. […] Tactile allodynia was measured via von Frey assay, hind limb paw weight distribution was monitored using an incapacitence tester (Columbus Instruments, Columbus, OH, USA) and hind limb grip strength was measured using a grip strength meter (Columbus Instruments, Columbus, OH, USA). […] Hind paw weight distribution was determined by placing rats in a chamber so that each hind paw rests on a separate force plate of the incapacitence tester. The force exerted by each hind limb (measured in grams) is averaged over a 3 second period. Three measurements were taken for each rat, and the change in hind paw weight distribution calculated. […]"}, "[3]": {"system": "male Sprague Dawley rats, paclitaxel-induced allodynia", "assay": "Paclitaxel-induced allodynia", "type": "in vivo, rat", "settings": "10 mg/kg orally, FIG. 3", "experimental": "Animals: Male Sprague Dawley rats [200-250 g] (Harlan Laboratories Inc., Livermore, CA) were housed three per cage and maintained in a humidity-controlled (40-60%) and temperature-controlled (68-72° F.) facility on a 12 h:12 h light/dark cycle (lights on at 6:30 am) with free access to food (Harlan Teklad, Orange, CA, Rodent Diet 8604) and water. Rats were allowed one week of habituation to the animal facility before starting treatment.\nInduction of Allodynia: Rats were treated intraperitoneally, with 2 mg/kg of paclitaxel (Sigma Aldrich, Saint Louis, MO) in 10% Cremophor vehicle (500 μL) on days 0, 2, 4, and 6.\nClinical scoring: Tactile allodynia was tested using von Frey filaments. Briefly, the von Frey assay was performed using the standardized up down method with von Frey filaments, that determine the tactile sensitivity of the paw. By applying the increasingly or decreasingly thicker filaments to the paw in a logarithmic scale of actual force, a linear scale of perceived intensity is determined.\nDrug treatment: Eight days after the start of paclitaxel dosing, a baseline measurement (von Frey assay) was performed prior to dosing of compounds. […] As a positive control, rats were dosed intraperitoneally with 100 mg/kg gabapentin in water. The dosing volume for oral and peritoneal treatment was 500 μL. […]"}, "[4]": {"target": "CB1 (Mus musculus, UniProt P47746)", "sequence (P47746 whole entry)": "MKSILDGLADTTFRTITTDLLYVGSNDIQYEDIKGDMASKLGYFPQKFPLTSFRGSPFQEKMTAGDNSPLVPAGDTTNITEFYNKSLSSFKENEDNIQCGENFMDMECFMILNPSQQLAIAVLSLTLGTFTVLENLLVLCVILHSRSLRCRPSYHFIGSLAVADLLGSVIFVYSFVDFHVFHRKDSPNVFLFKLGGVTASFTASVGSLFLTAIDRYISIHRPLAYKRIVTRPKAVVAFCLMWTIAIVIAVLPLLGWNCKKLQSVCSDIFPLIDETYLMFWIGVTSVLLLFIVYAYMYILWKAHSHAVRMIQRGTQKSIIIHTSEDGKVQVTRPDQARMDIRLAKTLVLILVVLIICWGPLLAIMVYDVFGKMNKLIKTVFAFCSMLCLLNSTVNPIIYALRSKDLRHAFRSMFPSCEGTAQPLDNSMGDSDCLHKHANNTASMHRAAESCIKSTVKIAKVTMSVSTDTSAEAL", "settings": "exogenous administration; cited from earlier work"}, "[5]": {"target": "T1, recombinant CB2 receptors (rat) (Rattus norvegicus, UniProt Q9QZN9)", "T1 sequence (Q9QZN9 1-360)": "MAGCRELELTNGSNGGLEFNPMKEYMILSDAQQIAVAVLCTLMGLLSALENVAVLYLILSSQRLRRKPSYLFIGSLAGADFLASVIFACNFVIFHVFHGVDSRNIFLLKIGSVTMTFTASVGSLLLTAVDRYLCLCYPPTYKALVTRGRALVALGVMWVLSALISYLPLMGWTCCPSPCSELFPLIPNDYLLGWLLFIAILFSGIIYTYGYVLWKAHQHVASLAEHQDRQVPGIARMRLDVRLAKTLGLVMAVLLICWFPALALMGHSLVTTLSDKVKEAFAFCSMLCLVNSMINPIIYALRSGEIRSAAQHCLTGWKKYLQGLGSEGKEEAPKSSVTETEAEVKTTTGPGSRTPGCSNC", "assay": "GPCR signaling assay, recombinant rat CB2", "type": "cell-based", "settings": "GPCR signaling assays, recombinant receptor", "experimental": "(§1) The binding affinity, potency, and selectivity of Compound A for recombinant CB2 receptors were determined using radioligand binding assays and GPCR signaling assays."}, "[6]": {"system": "male Sprague-Dawley rats, STZ-induced PDPN", "assay": "Streptozotocin-induced painful diabetic peripheral neuropathy (PDPN) model", "type": "in vivo, rat", "settings": "10 mg/kg orally in 0.5% methylcellulose; 1, 4 and 6 hours post-dosing; FIG. 9, FIG. 10", "experimental": "Male Sprague-Dawley rats were injected intraperitoneally with 50 mg/kg of streptozotocin (STZ) in sodium citrate buffer. 10% sucrose water was provided ad libitum for the first 48 hours post-STZ followed by regular drinking water. Rats were monitored once weekly for blood glucose levels and body weights. Development of tactile allodynia over time was analyzed using Von Frey filaments and a 50% withdrawal threshold was determined using Dixon's up-down procedure. […] Tactile allodynia was evaluated at 1, 4 and 6 hours post-dosing."}, "[7]": {"target": "T2, human CB2 receptor (Homo sapiens, UniProt P34972)", "T2 sequence (P34972 whole entry)": "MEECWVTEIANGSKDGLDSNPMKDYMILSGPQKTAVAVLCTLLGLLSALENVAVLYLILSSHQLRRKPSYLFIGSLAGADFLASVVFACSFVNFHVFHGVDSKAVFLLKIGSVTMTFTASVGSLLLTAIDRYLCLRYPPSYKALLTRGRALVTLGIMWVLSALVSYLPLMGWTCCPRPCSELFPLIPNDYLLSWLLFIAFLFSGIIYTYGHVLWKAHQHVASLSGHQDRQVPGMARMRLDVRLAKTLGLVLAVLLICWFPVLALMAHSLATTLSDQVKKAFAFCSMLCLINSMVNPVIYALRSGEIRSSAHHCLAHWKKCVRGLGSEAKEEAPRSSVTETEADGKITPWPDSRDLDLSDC", "assay": "GPCR signaling assay, recombinant human CB2", "type": "cell-based"}, "[8]": {"system": "recombinant dog CB1 receptors", "assay": "Interaction with recombinant dog CB1", "settings": "test concentrations up to 10 μM"}, "[9]": {"target": "T3, hCB1 (Homo sapiens, UniProt P21554)", "T3 sequence (P21554 whole entry)": "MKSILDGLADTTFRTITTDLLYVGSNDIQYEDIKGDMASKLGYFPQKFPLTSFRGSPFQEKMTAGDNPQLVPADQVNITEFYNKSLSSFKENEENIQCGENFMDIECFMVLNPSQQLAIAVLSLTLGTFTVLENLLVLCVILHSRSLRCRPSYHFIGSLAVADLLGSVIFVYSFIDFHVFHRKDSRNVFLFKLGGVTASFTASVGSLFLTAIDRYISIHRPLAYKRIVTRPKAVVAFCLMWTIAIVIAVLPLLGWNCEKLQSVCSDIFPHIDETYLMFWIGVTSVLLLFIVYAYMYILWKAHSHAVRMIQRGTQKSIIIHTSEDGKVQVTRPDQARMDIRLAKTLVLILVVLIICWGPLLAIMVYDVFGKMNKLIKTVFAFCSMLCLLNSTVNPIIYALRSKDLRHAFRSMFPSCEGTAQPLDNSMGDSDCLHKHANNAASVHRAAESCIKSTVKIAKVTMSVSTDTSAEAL", "assay": "Interaction with recombinant human CB1", "settings": "test concentrations up to 10 μM"}, "[10]": {"target": "T4, recombinant CB2 receptors (dog) (Canis lupus familiaris, UniProt E2RKA3)", "T4 construct": "other: GPCR signaling assays, recombinant receptor", "T4 sequence (E2RKA3 1-360)": "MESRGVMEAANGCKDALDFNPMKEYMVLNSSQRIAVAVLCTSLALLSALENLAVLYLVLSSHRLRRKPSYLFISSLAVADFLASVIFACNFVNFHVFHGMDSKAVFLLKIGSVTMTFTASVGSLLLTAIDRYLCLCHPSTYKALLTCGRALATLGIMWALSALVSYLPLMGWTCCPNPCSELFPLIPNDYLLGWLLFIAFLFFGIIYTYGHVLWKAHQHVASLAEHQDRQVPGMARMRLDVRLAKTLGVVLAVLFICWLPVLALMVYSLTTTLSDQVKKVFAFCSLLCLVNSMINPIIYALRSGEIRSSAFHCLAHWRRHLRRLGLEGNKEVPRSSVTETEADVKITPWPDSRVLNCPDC", "assay": "GPCR signaling assay, recombinant dog CB2", "type": "cell-based", "settings": "GPCR signaling assays, recombinant receptor", "experimental": "as §1"}, "[11]": {"system": "rats with TNBS-induced colitis and healthy rats", "assay": "Visceral pain model of colitis: visceromotor response to colorectal distension after TNBS", "type": "in vivo, rat", "experimental": "Rats with active colitis display allodynia and hyperalgesia to colorectal distension following the administration of trinitrobenzene sulfonic acid (TNBS).\nAbdominal electromyographic (EMG) electrode implantation is followed by measurement of visceromotor response (VMR) at 0, 20, 40, 60, and 80 mmHg of colorectal distention on day 4. The effect of each treatment on colonic compliance is also determined.\nAbdominal EMG electrode implantation is followed by measurement of VMR at 0, 20, 40, 60, and 80 mmHg of colorectal distention on day 4. The effect of each treatment on colonic compliance is also determined."}, "[12]": {"system": "Sprague Dawley rats, acetic acid-induced writhing", "assay": "Acetic acid-induced writhing model of visceral pain", "type": "in vivo, rat", "settings": "3, 10, 30 mg/kg PO, acetic acid 1.5% IP; FIGS. 11 and 12", "experimental": "Writhing is induced in male Sprague Dawley rats by administering glacial acetic acid (1.5%) intraperitoneally (IP). […] On test day, rats are placed in observation cages and administered compound according to the schedules in Tables D, F, H, and J. Treatment groups are as provided in Tables E, G, I, and K.\nStudies are performed to evaluate single dose assessment (Tables D and E), maintenance of efficacy after repeated administration (Tables F and G), antagonist interactions (Tables H and I), and dose response (Tables J and K).\nWrithing behavior is scored for 30 minutes in five-minute time bins.\nWrithing behavior was evaluated 20 minutes later and recorded for 30 minutes (in five-minute bins)."}, "[13]": {"target": "recombinant rat CB1 receptors (Rattus norvegicus, UniProt P20272)", "sequence (P20272 whole entry)": "as the sequence (P47746 whole entry) above, with D95E counted along it", "assay": "Interaction with recombinant rat CB1", "settings": "test concentrations up to 10 μM"}, "[14]": {"system": "rats following ligation of spinal nerves", "settings": "local (subcutaneous) or systemic administration; cited from earlier work"}, "[15]": {"system": "rodents, models of inflammatory pain", "settings": "systemic delivery; cited from earlier work"}, "[16]": {"system": "capsaicin-induced hyperalgesia and allodynia", "settings": "topical administration, humans; cited from earlier work"}, "[17]": {"target": "T2, human CB2 receptor", "assay": "Radioligand binding assay, hCB2", "design": "93-0164 (CHO-K1 EA-Arrestin parental line); host or cells: CHO-K1 EA-Arrestin, clone #61", "settings": "Table C", "quoted_text": "Preparation of Membranes: HTEK293 cells stably expressing human CB2 receptor were collected, washed in ice cold PBS, and centrifuged at 48,000×g for 20 min at 4° C. The cell pellet was then collected, resuspended in wash buffer (20 mM HEPES, pH 7.4 and 1 mM EDTA), homogenized on ice using a Brinkman Polytron, and centrifuged at 48,000×g for 20 min at 4° C. The resultant pellet was resuspended in ice cold 20 mM HEPES, pH 7.4, homogenized again on ice, recentrifuged for 20 min at 4° C., and membrane pellets were then stored at −80° C. until needed.\n[^3H]CP55,940 and [^3H]WIN55,212-2 Radioligand Binding Assays: Radioligand binding assays for human CB2 receptors were performed using two different agonist radioligands, [^3H]CP55,940 and [^3H]WIN55,212-2 and similar assay conditions. For both assays, nonspecific binding was determined in the presence of 10 mM unlabeled compound. […] Then, 25 μL of BetaScint scintillation cocktail was added to each well, and plates were read in a Packard TopCount scintillation counter."}, "[18]": {"target": "T3, hCB1", "assay": "Radioligand binding assay, hCB1", "settings": "Table C"}}, "data": [{"compound": "CC(C)(CO)NC(=O)c1nn(-c2ccc(F)cc2F)c2c1C[C@H]1C[C@@H]21", "note": "[Compound 493, (1aR,5aR)-2-(2,4-Difluoro-phenyl)-1a,2,5,5a-tetrahydro-1H-2,3-diaza-cyclopropa[a]pentalene-4-carboxylic acid (2-hydroxy-1,1-dimethyl-ethyl)-amide]", "values": [{"measurement": "Paw withdrawal threshold (PWT) in comparison with the vehicle", "setting": "[1]", "value": "increase in paw withdrawal threshold (PWT)"}, {"measurement": "Paw withdrawal threshold (PWT) in comparison with vehicle", "setting": "[2]", "value": "Increase in paw withdrawal threshold (PWT)"}, {"measurement": "Time of maximum efficacy post-dosing", "setting": "[3]", "value": 1, "unit": "h"}, {"measurement": "Paw withdrawal threshold (PWT) in comparison with vehicle and gabapentin", "setting": "[3]; von Frey 30, 60 and 180 minutes after dosing", "value": "increase in paw withdrawal threshold (PWT)"}]}, {"compound": "CCCCC/C=C\\C/C=C\\C/C=C\\C/C=C\\CCCC(=O)NCCCl", "note": "[arachidonyl-2-chloroethylamide]", "values": [{"measurement": "Effect on pain", "setting": "[4]", "value": "reduces pain"}]}, {"compound": "CC(C)(C)[C@@H](CO)NC(=O)c1nn(-c2c[n+]([O-])ccn2)c2c1C[C@@H]1C[C@H]21", "note": "[Compound 699, (1aS,5aS)-2-(4-Oxy-pyrazin-2-yl)-1a,2,5,5a-tetrahydro-1H-2,3-diaza-cyclopropa[a]pentalene-4-carboxylic acid ((S)-1-hydroxymethyl-2,2-dimethyl-propyl)-amide]", "values": [{"measurement": "EC50", "setting": "[5]", "value": "6 to 8", "unit": "nM"}, {"measurement": "Analgesic efficacy (tactile allodynia, 50% withdrawal threshold)", "setting": "[6]", "value": "robust and sustained analgesic efficacy over 6 hours"}, {"measurement": "Kind of activity at the CB2 receptor", "setting": "[7]", "value": "full agonist"}, {"measurement": "Interaction with recombinant dog CB1 receptors", "setting": "[8]", "value": "did not interact"}, {"measurement": "Interaction with recombinant human CB1 receptors", "setting": "[9]", "value": "did not interact"}, {"measurement": "EC50", "setting": "[10]", "value": "6 to 8", "unit": "nM"}, {"measurement": "Response (VMR) in rats with healthy colons", "setting": "[11]; 30 mg/kg oral gavage twice daily for five days", "value": "without changing response"}, {"measurement": "Colonic hypersensitivity, dose dependence", "setting": "[11]; 10 and 30 mg/kg oral gavage twice daily, rats with TNBS-induced colitis", "value": "reducing colonic hypersensitivity in a dose-dependent manner"}, {"measurement": "Visceral pain response (VMR to colorectal distension), rats with TNBS-induced colitis", "setting": "[11]; 10 or 30 mg/kg oral gavage twice daily for five days, FIG. 13", "value": "reduces the visceral pain response"}, {"measurement": "Efficacy on writhing behavior", "setting": "[12]", "value": "efficacious"}, {"measurement": "Interaction with recombinant rat CB1 receptors", "setting": "[13]", "value": "did not interact"}]}, {"compound": "CN1CCCCC1Cn1cc(C(=O)c2cc([N+](=O)[O-])ccc2I)c2ccccc21", "note": "(stereo not drawn) [AM1241]", "values": [{"measurement": "Tactile and thermal hypersensitivity", "setting": "[14]", "value": "reverses tactile and thermal hypersensitivity"}, {"measurement": "Hyperalgesia in carrageenan, capsaicin, and formalin models", "setting": "[15]", "value": "suppresses hyperalgesia"}]}, {"compound": "CCCCCCC(C)(C)c1cc(O)c2c(c1)OC(C)(C)[C@@H]1CC=C(CO)C[C@@H]21", "note": "[HU-210]", "values": [{"measurement": "Capsaicin-induced hyperalgesia and allodynia", "setting": "[16]", "value": "attenuates capsaicin-induced hyperalgesia and allodynia"}]}, {"compound": "CONC(=O)[C@@H](NC(=O)c1nn(-c2c[n+]([O-])ccn2)c2c1C[C@H]1C[C@@H]21)C(C)(C)C", "note": "[Compound 755, (1aR,5aR)-2-(4-Oxy-pyrazin-2-yl)-1a,2,5,5a-tetrahydro-1H-2,3-diaza-cyclopropa[a]pentalene-4-carboxylic acid ((S)-1-methoxycarbamoyl-2,2-dimethyl-propyl)-amide]", "values": [{"measurement": "Ki", "setting": "[17]", "value": 3.8, "unit": "nM"}, {"measurement": "Ki", "setting": "[18]", "value": 1200, "unit": "nM"}]}]}
